Measured values as given in ChEMBL document CHEMBL1152047, “(cis)-3-methyl-1,5-benzothiazepine-4-ones: potent analogs of the calcium channel blocker diltiazen” (Bioorg Med Chem Lett, 1993).

Species on record: Oryctolagus cuniculus
Assay: Vasorelaxant potency determined by relaxation of potassium depolarized rabbit aortic strips
Assay type: functional
Details: Aorta

IC50 [nM]	Compound
10	COc1ccc([C@@H]2Sc3cc(OC)ccc3N(CCN(C)C)C(=O)[C@@H]2C)cc1
120	COc1ccc([C@@H]2Sc3cc(OC)ccc3N(CCN(C)C)C(=O)[C@@H]2OC(C)=O)cc1
22	COc1ccc([C@@H]2Sc3cc(C(F)(F)F)ccc3N(CCN(C)C)C(=O)[C@@H]2C)cc1
82	COc1ccc([C@@H]2Sc3ccccc3N(CCN(C)C)C(=O)[C@@H]2C)cc1
